Earlier results on three compounds are cited in PubChem BioAssay AID1259409 (Chemical Carcinogenesis Research Information System (CCRIS), 2018).

Each structure is given as a SMILES string. Where “and” joins values, the source holds several entries; their conditions need not be identical. Equal values may be shown once.

This data set concerns rodent chemically induced tumor inhibition, incidence and multiplicity. Briefly: CCRIS tumor inhibitor studies.

Regarding `CC(=O)Oc1ccccc1C(=O)Oc1ccccc1C(=O)O`, the “tumour outcome (control, treated, inhibition, significance)” value was 8/8 (100%), 10/10 (100%), 0%, not significant and 4/4 (100%), 3/3 (100%), 0%, not significant (Carcinogen: NONE USED, Dose [Inhibitor]: 0, 0.1% IN CHOLINE-DEFICIENT DIET FOR 30 WK (STUDY DURATION: 30 WK), Route [Inhibitor]: ORAL, Species: RAT, Strain/Sex: F344/MALE, Target Tissue: Type of Lesion: LIVER: NEOPLASTIC NODULE, Promoter: NONE USED); 8/8 (100%), 4/11 (36%), 64%, p<0.05 and 4/4 (100%), 3/3 (100%), 0%, not significant (Carcinogen: NONE USED, Dose [Inhibitor]: 0, 0.2% IN CHOLINE-DEFICIENT DIET FOR 30 WK (STUDY DURATION: 30 WK), Route [Inhibitor]: ORAL, Species: RAT, Strain/Sex: F344/MALE, Target Tissue: Type of Lesion: LIVER: NEOPLASTIC NODULE, Promoter: NONE USED); 4/4 (100%), 0/4 (0%), 100%, p<0.05 (Carcinogen: NONE USED, Dose [Inhibitor]: 0, 0.4% IN CHOLINE-DEFICIENT DIET FOR 30 WK (STUDY DURATION: 30 WK), Route [Inhibitor]: ORAL, Species: RAT, Strain/Sex: F344/MALE, Target Tissue: Type of Lesion: LIVER: NEOPLASTIC NODULE, Promoter: NONE USED); 4/4 (100%), 0/3 (0%), 100%, p<0.05 (Carcinogen: NONE USED, Dose [Inhibitor]: 0, 0.8% IN CHOLINE-DEFICIENT DIET FOR 30 WK (STUDY DURATION: 30 WK), Route [Inhibitor]: ORAL, Species: RAT, Strain/Sex: F344/MALE, Target Tissue: Type of Lesion: LIVER: NEOPLASTIC NODULE, Promoter: NONE USED).
`CC1=C(/C=C/C(C)=C/C=C/C(C)=C/C(=O)NCCCCO)C(C)(C)CCC1`: the “tumour outcome (control, treated, inhibition, significance)” value is, setting by setting: (Carcinogen: N-BUTYL-N-(4-HYDROXYBUTYL)NITROSAMINE, 3817-11-6, Dose [Inhibitor]: 1.5 MMOL/KG DIET DAILY FOR 133 D STARTING ONE WK AFTER THE FINAL CARCINOGEN DOSE (STUDY DURATION: 190 D), Route [Inhibitor]: ORAL, Species: MOUSE, Strain/Sex: BDF/MALE, Target Tissue: Type of Lesion: URINARY BLADDER: TRANSITIONAL CELL CARCINOMA, Dose [Carcinogen]: 7.5 MG 1/WK FOR 8 WK, Promoter: NONE USED) 21/100 (21%), 21/100 (21%), 0%, not significant; (Carcinogen: N-BUTYL-N-(4-HYDROXYBUTYL)NITROSAMINE, 3817-11-6, Dose [Inhibitor]: 1.5 MMOL/KG IN DIET FOR 133 D STARTING 1 WK AFTER LAST CARCINOGEN DOSE (STUDY DURATION: 190 D), Route [Inhibitor]: ORAL, Species: MOUSE, Strain/Sex: DBF1/MALE, Target Tissue: Type of Lesion: URINARY BLADDER: TRANSITIONAL CELL CARCINOMA, Dose [Carcinogen]: 7.5 MG 1/WK FOR 8 WK, Promoter: NONE USED) 21/100 (21%), 21/100 (21%), 0%, not significant.
Turning to `CCCCC/C=C/CC/C=C/CCCCCCC(=O)O`, the “tumour outcome (control, treated, inhibition, significance)” value (Carcinogen: BENZO[A]PYRENE, 50-32-8, Dose [Inhibitor]: 0, 0.1 ML IN 0.1 ML OLIVE OIL 4 AND 2 D PRIOR TO CARCINOGEN DOSE (CYCLE REPEATED 4 X) (STUDY DURATION: 23 WK), Route [Inhibitor]: GAVAGE, Species: MOUSE, Strain/Sex: ICR/FEMALE, Target Tissue: Type of Lesion: STOMACH: PAPILLOMA, Dose [Carcinogen]: 2 MG IN 0.2 ML OLIVE OIL 1/WK FOR 4 WK) is 91%, 71%, 22%, p<0.05 and 96%, 96%, 0% and 100%, 71%, 29%, p<0.05.
